Data reported in ChEMBL document CHEMBL4000246, “Total synthesis and cytotoxicity of Leucetta alkaloids” (Bioorg Med Chem, 2017).

The compounds below were run on MCF7 (assay: Cytotoxicity against human MCF7 cells assessed as growth inhibition after 96 hrs by MTT assay).
Assay type: functional, cell-based
For `COC1=C(OC)C(=O)c2c(cc3c([nH]c(=O)n3C)c2-c2ccc(OC)cc2)C1=O`, the IC50 was 43.8 µM. With `COC1=C(OC)C(=O)c2c(cc3c(nc(N)n3C)c2-c2ccc(OC)cc2)C1=O` the IC50 was greater than 100 µM. Compound `COc1ccc(-c2c3cc(OC)c(OC)cc3cc3c2nc(N)n3C)cc1` has an IC50 of 4.4 µM. `COc1ccc(-c2c3nc(N)n(C)c3cc3cc(OC)c(OC)c(OC)c23)cc1` showed an IC50 of 19.5 µM. Work on `COc1ccc(-c2c3cc(OCc4ccccc4)c(OC)cc3cc3c2ncn3C)cc1` yielded an IC50 of 76.9 µM. For `COc1ccc(-c2c3cc(OC)c(OC)cc3cc3c2ncn3C)cc1`, the IC50 was 99.8 µM. Compound `COc1ccc(-c2c3ncn(C)c3cc3cc(OC)c(OC)c(OC)c23)cc1` has an IC50 greater than 100 µM. `COC1=C(OC)C(=O)c2c(cc3c(ncn3C)c2-c2ccc(OC)cc2)C1=O` showed an IC50 of 92 µM. `COc1ccc(-c2c3[nH]c(=O)n(C)c3cc3cc(OC)c(OC)c(OC)c23)cc1` gave an IC50 of 91.9 µM. Work on `COc1ccc(-c2c3cc(OC)c(OC)c(OC)c3cc3c2nc(N)n3C)cc1` yielded an IC50 of 4.94 µM. `COc1ccc(-c2c3cc(OC)c(OC)c(OC)c3cc3c2ncn3C)cc1` was tested, and the IC50 was 68.2 µM. Compound `COc1ccc(-c2c3cc(O)c(OC)cc3cc3c2ncn3C)cc1` has an IC50 of 41.1 µM. For `COc1ccc(Cc2nc(N)n(C)c2Cc2ccc(OC)cc2)cc1`, the IC50 was 28.8 µM. `COc1ccc(Cc2c(C(OC)c3ccc(OC)cc3)nc(N)n2C)cc1` (stereo unspecified) gave an IC50 of 22.7 µM. In the case of `Cn1cc(Cc2ccc3c(c2)OCO3)nc1N`, the IC50 is reported as 23.4 µM. With `COc1ccc(Cc2nc(NC3=NC(=O)N(C)C3=O)n(C)c2Cc2ccc(OC)cc2)cc1` the IC50 was 5.08 µM. For `Cn1cnc(Cc2ccc3c(c2)OCO3)c1`, the IC50 was greater than 100 µM. Work on `CN1C(=O)N=C(Nc2nc(Cc3ccc4c(c3)OCO4)cn2C)C1=O` [CLATHRIDINE] yielded an IC50 greater than 100 µM. With `COc1ccc(Cn2cc(Cc3ccc(OC)c(OC)c3)nc2/N=C2/NC(=O)N(C)C2=O)cc1` [ISONAAMIDINE E] the IC50 was 5.78 µM. `COc1ccc(Cn2cc(Cc3ccc(OC)c(OC)c3)nc2N)cc1` [ISONAAMINE C] was tested, and the IC50 was 28 µM. Work on `COc1ccc(-c2c3cc(O)c(OC)cc3cc3c2[nH]c(=N)n3C)cc1` [KEALIININE A] yielded an IC50 greater than 100 µM.
